Experimental data as given in patent publication US8163728B2, “Pyrazoles” (Hoffmann-La Roche Inc., priority 2009, dated 2012).

Molecular target: T1, GABA A α5 (Homo sapiens, UniProt P18507+P31644)
T1 construct: expressed in transfected cells; host or cells: HEK293 cells, transiently transfected; membranes prepared from cell pellets
Assay: [3H]flumazenil competition binding, human GABA A α5β3γ2 receptors in HEK293 cell membranes
Details: human receptor α5β3γ2 transiently transfected in HEK293; 0.5 nM [3H]flumazenil; 1 hour at 4° C.; means of two determinations; read-out: hKi GABA A α5
Experimental: The affinity of compounds at GABA A receptor subtypes was measured by competition for [3H]flumazenil (85 Ci/mmol; Roche) binding to HEK293 cells expressing rat (stably transfected) or human (transiently transfected) receptors of composition α1β3γ2, α2β3γ2, α3β3γ2 and α5β3γ2.
Cell pellets were suspended in Krebs-tris buffer (4.8 mM KCl, 1.2 mM CaCl2, 1.2 mM MgCl2, 120 mM NaCl, 15 mM Tris; pH 7.5; binding assay buffer), homogenized by polytron for ca. 20 sec on ice and centrifuged for 60 min at 4° C. (50000 g; Sorvall, rotor: SM24=20000 rpm). The cell pellets were re-suspended in Krebs-tris buffer and homogenized by polytron for ca. 15 sec on ice. Protein was measured (Bradford method, Bio-Rad) and aliquots of 1 mL were prepared and stored at −80° C.
Assays were incubated to equilibrium for 1 hour at 4° C. and harvested onto GF/C uni-filters (Packard) by filtration using a Packard harvester and washing with ice-cold wash buffer (50 mM Tris; pH 7.5). After drying, filter-retained radioactivity was detected by liquid scintillation counting. Ki values were calculated using Excel-Fit (Microsoft) and are the means of two determinations.

| SMILES | Ki |
| --- | --- |
| Cc1onc(-c2ccccc2)c1COc1cc(C(N)=O)n(C)n1 [Example 45, 2-Methyl-5-(5-methyl-3-phenyl-isoxazol-4-ylmethoxy)-2H-pyrazole-3-carboxylic acid amide] | 47.3 nM |
| Cc1onc(-c2ccccc2)c1COc1cc(C(=O)NC(C)C)n(C)n1 [Example 46, 2-Methyl-5-(5-methyl-3-phenyl-isoxazol-4-ylmethoxy)-2H-pyrazole-3-carboxylic acid isopropylamide] | 40.9 nM |
| Cc1onc(-c2ccccc2)c1COc1cc(C(=O)NN(C)C)n(C)n1 [Example 47, 2-Methyl-5-(5-methyl-3-phenyl-isoxazol-4-ylmethoxy)-2H-pyrazole-3-carboxylic acid N′,N′-dimethyl-hydrazide] | 50.3 nM |
| Cc1onc(-c2ccc(F)cc2)c1COc1cc(C(=O)NN(C)C)n(C)n1 [Example 48, 5-[3-(4-Fluoro-phenyl)-5-methyl-isoxazol-4-ylmethoxy]-2-methyl-2H-pyrazole-3-carboxylic acid N′,N′-dimethyl-hydrazide] | 23.3 nM |
| Cc1onc(-c2ccc(F)cc2)c1COc1cc(C(=O)NN2CCCCC2)n(C)n1 [Example 49, 5-[3-(4-Fluoro-phenyl)-5-methyl-isoxazol-4-ylmethoxy]-2-methyl-2H-pyrazole-3-carboxylic acid piperidin-1-ylamide] | 19.3 nM |
| Cc1onc(-c2ccc(F)cc2)c1COc1cc(C(=O)NN2CCOCC2)n(C)n1 [Example 50, 5-[3-(4-Fluoro-phenyl)-5-methyl-isoxazol-4-ylmethoxy]-2-methyl-2H-pyrazole-3-carboxylic acid morpholin-4-ylamide] | 3.5 nM |
| Cc1onc(-c2ccc(F)cc2)c1COc1cc(C(=O)NN2CCCC2)n(C)n1 [Example 51, 5-[3-(4-Fluoro-phenyl)-5-methyl-isoxazol-4-ylmethoxy]-2-methyl-2H-pyrazole-3-carboxylic acid pyrrolidin-1-ylamide] | 11.4 nM |
| Cc1onc(-c2ccc(F)cc2)c1COc1cc(C(=O)NC(C)C)n(C)n1 [Example 52, 5-[3-(4-Fluoro-phenyl)-5-methyl-isoxazol-4-ylmethoxy]-2-methyl-2H-pyrazole-3-carboxylic acid isopropylamide] | 7.4 nM |
| Cc1onc(-c2ccc(F)cc2)c1COc1cc(C(=O)NC2CCOCC2)n(C)n1 [Example 53, 5-[3-(4-Fluoro-phenyl)-5-methyl-isoxazol-4-ylmethoxy]-2-methyl-2H-pyrazole-3-carboxylic acid (tetrahydro-pyran-4-yl)-amide] | 1.2 nM |
| Cc1onc(-c2ccc(F)cc2)c1COc1cc(C(N)=O)n(C)n1 [Example 54, 5-[3-(4-Fluoro-phenyl)-5-methyl-isoxazol-4-ylmethoxy]-2-methyl-2H-pyrazole-3-carboxylic acid amide] | 12 nM |

More lines, now with the values ahead:

| Ki | SMILES |
| --- | --- |
| 29.6 nM | Cc1onc(-c2ccc(F)cc2)c1COc1cc(C(=O)NC(C)(C)CO)n(C)n1 [Example 55, 5-[3-(4-Fluoro-phenyl)-5-methyl-isoxazol-4-ylmethoxy]-2-methyl-2H-pyrazole-3-carboxylic acid (2-hydroxy-1,1-dimethyl-ethyl)-amide] |
| 4.3 nM | Cc1onc(-c2ccc(F)cc2)c1COc1cc(C(=O)NC2(C)COC2)n(C)n1 [Example 58, 5-[3-(4-Fluoro-phenyl)-5-methyl-isoxazol-4-ylmethoxy]-2-methyl-2H-pyrazole-3-carboxylic acid (3-methyl-oxetan-3-yl)-amide] |
| 13.2 nM | COCCNC(=O)c1cc(OCc2c(-c3ccc(F)cc3)noc2C)nn1C [Example 60, 5-[3-(4-Fluoro-phenyl)-5-methyl-isoxazol-4-ylmethoxy]-2-methyl-2H-pyrazole-3-carboxylic acid (2-methoxy-ethyl)-amide] |
| 7.4 nM | Cc1onc(-c2ccc(F)cc2)c1COc1cc(C(=O)NCC2(O)CC2)n(C)n1 [Example 61, 5-[3-(4-Fluoro-phenyl)-5-methyl-isoxazol-4-ylmethoxy]-2-methyl-2H-pyrazole-3-carboxylic acid (1-hydroxy-cyclopropylmethyl)-amide] |
| 7.1 nM | Cc1onc(-c2ccc(F)cc2)c1COc1cc(C(=O)NCCO)n(C)n1 [Example 62, 5-[3-(4-Fluoro-phenyl)-5-methyl-isoxazol-4-ylmethoxy]-2-methyl-2H-pyrazole-3-carboxylic acid (2-hydroxy-ethyl)-amide] |
| 13.1 nM | Cc1onc(-c2ccc(F)cc2)c1COc1cc(C(=O)Nc2ccn(C)n2)n(C)n1 [Example 63, 5-[3-(4-Fluoro-phenyl)-5-methyl-isoxazol-4-ylmethoxy]-2-methyl-2H-pyrazole-3-carboxylic acid (1-methyl-1H-pyrazol-3-yl)-amide] |
| 16.1 nM | CC(=O)NCCNC(=O)c1cc(OCc2c(-c3ccc(F)cc3)noc2C)nn1C [Example 64, 5-[3-(4-Fluoro-phenyl)-5-methyl-isoxazol-4-ylmethoxy]-2-methyl-2H-pyrazole-3-carboxylic acid (2-acetylamino-ethyl)-amide] |
| 5.8 nM | Cc1onc(-c2ccc(F)cc2)c1COc1cc(C(=O)NCC(C)(C)CO)n(C)n1 [Example 65, 5-[3-(4-Fluoro-phenyl)-5-methyl-isoxazol-4-ylmethoxy]-2-methyl-2H-pyrazole-3-carboxylic acid (3-hydroxy-2,2-dimethyl-propyl)-amide] |
| 6.5 nM | Cc1onc(-c2ccc(F)cc2)c1COc1cc(C(=O)NCC(C)(C)O)n(C)n1 [Example 66, 5-[3-(4-Fluoro-phenyl)-5-methyl-isoxazol-4-ylmethoxy]-2-methyl-2H-pyrazole-3-carboxylic acid (2-hydroxy-2-methyl-propyl)-amide] |
| 16.5 nM | Cc1onc(-c2ccc(F)cc2)c1COc1cc(C(=O)N2CC(O)C2)n(C)n1 [Example 71, {5-[3-(4-Fluoro-phenyl)-5-methyl-isoxazol-4-ylmethoxy]-2-methyl-2H-pyrazol-3-yl}-(3-hydroxy-azetidin-1-yl)-methanone] |
| 9.4 nM | Cc1onc(-c2ccc(F)cc2)c1COc1cc(C(=O)N[C@H]2CCC[C@@H]2O)n(C)n1 [Example 73, (+5-[3-(4-Fluoro-phenyl)-5-methyl-isoxazol-4-ylmethoxy]-2-methyl-2H-pyrazole-3-carboxylic acid ((1R,2R)-2-hydroxy-cyclopentyl)-amideand/or 5-[3-(4-Fluoro-phenyl)-5-methyl-isoxazol-4-ylmethoxy]-2-methyl-2H-pyrazole-3-carboxylic acid ((18,28)-2-hydroxy-cyclopentyl)-amide] |
| 45.8 nM | Cc1onc(-c2ccc(F)cc2)c1COc1cc(C(=O)N2CC3(COC3)C2)n(C)n1 [Example 77, {5-[3-(4-Fluoro-phenyl)-5-methyl-isoxazol-4-ylmethoxy]-2-methyl-2H-pyrazol-3-yl}-(2-oxa-6-aza-spiro[3.3]hept-6-yl)-methanone] |
| 30.2 nM | Cc1onc(-c2ccccn2)c1COc1cc(C(=O)NC(C)C)n(C)n1 [Example 78, 2-Methyl-5-(5-methyl-3-pyridin-2-yl-isoxazol-4-ylmethoxy)-2H-pyrazole-3-carboxylic acid isopropylamide] |
| 6.5 nM | Cc1onc(-c2ccccn2)c1COc1cc(C(=O)NC2CCOCC2)n(C)n1 [Example 79, 2-Methyl-5-(5-methyl-3-pyridin-2-yl-isoxazol-4-ylmethoxy)-2H-pyrazole-3-carboxylic acid (tetrahydro-pyran-4-yl)-amide] |
